Article doi:10.1101/2022.12.07.519454v2 (biorxiv, 2023)

What was measured:
[1] = biological target: T1, yeast Sin3 PAH2 domain (Saccharomyces cerevisiae, UniProt P22579); assay: fluorescence polarization displacement of FITC-Ume6 SID; format: binding
T1 sequence (P22579 402-473): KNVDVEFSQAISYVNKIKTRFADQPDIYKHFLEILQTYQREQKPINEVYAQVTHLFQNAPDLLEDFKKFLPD

[2] = biological target: T1, yeast Sin3 PAH2 domain; assay: fluorescence polarization displacement of FITC-Ume6 SID peptide; format: binding

| Compound | Ki [1] [µM] | IC50 [2] [µM] |
| --- | --- | --- |
| C[C@@H](NC(=O)C1C(=O)N=C2C=CC=CN2C1O)c1ccccc1 (stereo partly drawn) [E6R, 4-hydroxy-2-oxo-N-((R)-1-phenylethyl)-3,4-dihydro-2H-pyrido[1,2-a]pyrimidine-3-carboxamide] | 16.1 | 74.5 ± 7.2 |
| C[C@H](NC(=O)C1C(=O)N=C2C=CC=CN2C1O)c1ccccc1 (stereo partly drawn) [E6S, 4-hydroxy-2-oxo-N-((S)-1-phenylethyl)-3,4-dihydro-2H-pyrido[1,2-a]pyrimidine-3-carboxamide] | 38.5 | 174 ± 21.9 |
